Measured values: ChEMBL document CHEMBL3988442, “University of Dundee, Small-Polar-MMV Screening Library” (2021)
“And” between values parts separate entries of the source, which are not always exact repeats. Identical values can stand only once.

Columns and labels:
[1] = microbe, parasite or virus in culture; details: Mycobacterium tuberculosis, 72 h, read-out: pIC50 (converted)
[2] = microbe, parasite or virus in culture; details: Mycobacterium tuberculosis, 96 h, read-out: pIC50 (converted)
Plasmodium falciparum [3] = experiment: Plasmodium falciparum sporozoite viability assay; assay type: functional, organism-based; details: for IC50: Plasmodium falciparum
Plasmodium falciparum [4] = experiment: Calibr Malaria Delayed Death Assay SOP; assay type: functional, organism-based; details: for IC50: Plasmodium falciparum
Schistosoma mansoni = experiment: High throughput screening of compounds against Schistosoma mansoni motility; assay type: functional; design: dose or concentration left out as unconfirmed

Structure (SMILES)	IC50 (Plasmodium falciparum [3])	pIC50 (Plasmodium falciparum [3])	further results
CN(C)CCNC(=O)C1Cc2nc(-c3ccccc3)sc2N1CC1CC1 (stereo not given)	3590 nM		IC50 [1]: > 50100 nM; IC50 [2]: > 50100 nM
CC(C)(C)n1cc(C2=CCN(CCc3ccccc3)CC2)cn1	1530 nM	5.875	pIC50 (Plasmodium falciparum [4]): 6.257; IC50 (Plasmodium falciparum [4]): 571 nM; Percent Effect (Schistosoma mansoni): 26.35%
Cc1ccc(-c2ccc(C3CNCCO3)nc2)cc1.Cl (stereo not given)	23.1 nM	7.716	pIC50 (Plasmodium falciparum [4]): 6.712; IC50 (Plasmodium falciparum [4]): 108 nM
Cc1nnc(CN(C)Cc2nc3c(s2)CCCC3)o1	3560 nM	5.52	
CSc1cc2c(cc1NC(=O)NCCn1ccnc1)OCCO2	126 nM	6.776	
Cl.Clc1ccc(-c2ccc(C3CNCCO3)nc2)cc1 (stereo not given)	75 nM		pIC50 (Plasmodium falciparum [4]): 6.505; IC50 (Plasmodium falciparum [4]): 433 nM
CC(C)C(=O)N1CCN(Cc2csc(-c3ccccn3)n2)CC1	965 nM	5.915	
CCC1CN(C(=O)c2ccc(O)cn2)CCC(=O)N1Cc1ccccc1 (stereo not given)		5.529 and 5.955	
CC(C)(C)c1cn2nc(N3CCCC(Cn4cncn4)C3)sc2n1 (stereo not given)	> 10500 nM	4.991	
c1ccc(-c2noc(CN3CCc4cncnc4C3)n2)nc1		5.93 and 5.587	
c1ccc2sc(CN3CCOC(Cn4cncn4)C3)nc2c1 (stereo not given)	621 nM	6.123	
Cc1cn2c(n1)C(CNCC1=Cc3cc(Cl)ccc3OC1)CCC2 (stereo not given)	908 nM	5.932	pIC50 (Plasmodium falciparum [4]): 5.847; IC50 (Plasmodium falciparum [4]): 1660 nM
OCC1CCCN1c1cc(NCCc2ccsc2)ncn1 (stereo not given)	59.6 nM	7.515	
CC(C)c1nc2c(n1C)CCN(Cc1nc(-c3ccoc3)no1)C2	3150 nM	5.631	
COC(=O)CC1CCN(C(=O)Nc2ccc(-c3ccn[nH]3)cc2)C1 (stereo not given)	436 nM	6.226	
CCn1ncc2c1CCCC2NCc1cccc2c1OCO2 (stereo not given)	4370 nM	5.451	
c1ccc2sc(CN3CCCC3c3noc(C4CC4)n3)nc2c1 (stereo not given)		5.79 and 6.107	
COCc1noc(-c2ccc(N3CCC[C@H]3CO)nc2)n1	60.2 nM	7.269	
NC(=O)C1CN(c2ccc3cc(Br)ccc3n2)CCO1 (stereo not given)		7.699 and 7.366	
CO[C@H]1C[C@@H](O)C12CCN(C(=O)CCCOc1ccccc1)CC2		6.089 and 6.557	
COCCNC(=O)Nc1cc2c(cc1SC)OCCO2	555 nM	6.283	
Cn1cnc2c1CCN(Cc1csc(-c3ccccc3F)n1)C2	363 nM	6.45	
CC(C)(C)n1ncc2c(=O)n(CC(=O)NCc3ccccc3Cl)cnc21	103 nM	7.103	
CCC(=O)NC1CCCN(C(=O)Nc2cc(-c3ccccc3)on2)C1 (stereo not given)	187 nM	6.751	

Structure (SMILES)	IC50 (Plasmodium falciparum [3])	pIC50 (Plasmodium falciparum [3])	further results
CC(NC(=O)c1cc(C(C)C)[nH]n1)C(=O)Nc1ccccc1 (stereo not given)	48.9 nM	7.217	
Cc1ncsc1CN(C)Cc1cc2c(cc1OC(F)F)OCO2	3970 nM	5.624	
Cc1ccsc1-c1cccc(-c2ccn(CC3CCNC3)n2)c1 (stereo not given)	2580 nM	5.798	IC50 [1]: 23800 nM; IC50 [2]: 21300 nM
c1cc(-c2noc(CN3CCc4c(ncn4C4CC4)C3)n2)cs1	2470 nM	5.546	
COc1ccc2cc(C3CN(C(=O)CN4CCCC4)CCO3)ccc2c1 (stereo not given)	7630 nM	5.408	
Cc1cncc(NC(=O)c2ccc(CN3CC[C@H](O)C3)cc2)c1	80.2 nM	6.801	
Cc1cc(NC(=O)c2ccc(CN3CC[C@H](O)C3)cc2)ccc1F	15.2 nM	7.801	
O[C@H]1CN(CCOc2ccc(F)cc2)CC[C@@]12CCCO2	2550 nM	5.66	
CCn1cc(C(=O)N2CCOC(c3nc(-c4cccs4)no3)C2)cn1 (stereo not given)		5.925 and 5.539	
O=C(Cc1ccc2c(c1)OCCO2)N1CCCC(n2cccn2)C1 (stereo not given)		< 4.98 and 5.311	
Cc1ccc(Nc2nccc(C3CCN(CC(N)=O)C3)n2)nc1 (stereo not given)	21 nM	7.48	
c1cncc(OCc2nc(C3CC3)nn2-c2ccc3c(c2)OCCO3)c1	3840 nM	5.428	
C(=C\c1ccc(CN2CCCC2)cn1)/c1ccccc1	113 nM	7.171	
FC(F)(F)Oc1ccc(-c2noc([C@@H]3Cc4nc[nH]c4CN3)n2)cc1	221 nM	6.357	IC50 [1]: > 50100 nM; IC50 [2]: > 50100 nM
CC1CCCN(Cc2csc(-c3ncccn3)n2)CC1 (stereo not given)	4800 nM	5.365	
COc1cc(NC(=O)c2ccc(CN3CC[C@H](O)C3)cc2)cc(OC)c1	175 nM	6.645	
OC1CCN(c2ccc(CNc3nc4ccccc4s3)cc2F)CC1		7.297 and 6.882	
Cn1c(-c2cc3n(n2)CCCN(CC(=O)O)C3)nc2ccccc21		5.921 and 6.257	
COc1ccc2cc(C3CN(C(=O)N(C)C)CCO3)ccc2c1 (stereo not given)	14.9 nM	7.993	
CN1CCOC(C(=O)Nc2ccc3c(c2)nc(C(C)(C)C)n3C)C1 (stereo not given)	16.9 nM	7.552	
Cc1ccnc(NC(=O)CSCc2cccnc2)c1		7.141 and 6.819	
CN(C)CC(C)(O)CNC(=O)Nc1sc2ccccc2c1Cl (stereo not given)	2690 nM	5.506	
CCCc1cc(CNC2CCN(c3nc4ccccc4s3)CC2)on1	1840 nM	5.685	
COC(=O)CSCc1noc(-c2ccc(C)cc2)n1		6.885 and 7.313	IC50 [1]: 24400 nM; IC50 [2]: > 50100 nM

Structure (SMILES)	IC50 (Plasmodium falciparum [3])	pIC50 (Plasmodium falciparum [3])	further results
COC(=O)CSCc1noc(-c2ccc(Cl)cc2)n1	454 nM	6.573	IC50 [1]: > 50100 nM; IC50 [2]: > 50100 nM
CN(C)CCNc1ccc(-c2nc(-c3ccccc3F)no2)cn1		7.212 and 6.908	
COc1ccc2cc(C3CN(C(=O)CCNC(C)=O)CCO3)ccc2c1 (stereo not given)	48.6 nM	7.142	
Cc1cn2c(n1)C(CNCC1=Cc3ccccc3OC1)CCC2 (stereo not given)	62.3 nM	7.385	pIC50 (Plasmodium falciparum [4]): 5.983; IC50 (Plasmodium falciparum [4]): 903 nM
CC(C)c1n[nH]c(C(=O)Nc2ccnn2C(C)C)c1Br	970 nM	6.017	
CC/N=c1\nc(NCC)nc2n1C(O)(Nc1ccc(C)cc1C)CS2 (stereo not given)	2830 nM	5.511	
O=C(Nc1ccc(Cl)cn1)c1nn(C2CCS(=O)(=O)C2)c2c1CCCC2 (stereo not given)		5.512 and 5.897	
O=C(NCCNc1cc(N2CCCC2)cnn1)Nc1ccccc1F	819 nM	6.092	
COc1ccc(-c2ccc(C3CNCCO3)nc2)cc1.Cl (stereo not given)	73 nM	7.404	pIC50 (Plasmodium falciparum [4]): 6.456; IC50 (Plasmodium falciparum [4]): 190 nM
CC(C)c1nc2c(n1C)CCN(Cc1nc(-c3ccsc3)no1)C2		5.081 and 5.405	
CCC(CC)c1nnc(NC(=O)N2CCCC(NC(C)=O)C2)s1 (stereo not given)		5.262 and 5.718	
CCc1n[nH]c(C(=O)NCCn2nccc2C)c1C	> 10500 nM		
O=C(CCn1cccn1)NS(=O)(=O)N1CCCc2ccccc21	495 nM	6.348	
Cn1cc(CCC(=O)NS(=O)(=O)N2CCCc3ccccc32)cn1	157 nM	6.583	
Cc1nc(COc2ccc(OC3CCCCNC3=O)cc2)oc1C (stereo not given)	39 nM	7.451	
COCCN(C)c1ccc(NCc2cscn2)nc1	391 nM	6.387	
CN1CCOC(CNC(=O)CCCOc2ccccc2F)C1 (stereo not given)		5.757 and 6.214	
Cc1cc(C)n(CC2CN(Cc3nc4ccccc4s3)CCO2)n1 (stereo not given)	1720 nM	6.064	
O=C(Nc1ccc(N2CCCC2)nc1)N1CCc2ccccc2C1	2030 nM	5.522	
COc1cccc(-c2noc(C3CCN(Cc4cn(C)nc4C)C3)n2)c1 (stereo not given)	863 nM	5.995	
Clc1ccc2nc(N3CCC(NCCCC4CCOC4)CC3)sc2c1 (stereo not given)	3770 nM	5.724	
CNC(=O)CCC(=O)N1CCOC(c2ccc3cc(OC)ccc3c2)C1 (stereo not given)	83 nM	7.215	
c1ccc2sc(CN3CCOC(Cn4cccn4)C3)nc2c1 (stereo not given)		6.078 and 6.413	
